Measurements published in PubChem BioAssay AID720588 (Broad Institute, 2013).
Active and inactive are the calls of the source.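 Rule for the calls: active = fitted curve falls past a set limit of signal loss at no more than twice the top dose; inconclusive = flat fit between 30 and 70% signal loss, or poor fit; inactive = signal rise, flat within 30%, or crossing too high.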

Test: HEK293T cell cytotoxicity, dose response, cytotoxicity control, CellTiter-Glo luminescence, cherry-pick, set 3 (AID 720588)
Conditions: HEK293T viability, CellTiter-Glo ATP luminescence, 72 h; at 2.85 µM (top of the series)

SMILES	activity change, negative = cytotoxicity
COC(=O)C[C@@H]1CC[C@@H]2[C@H](COc3ccc(NC(=O)Nc4cccc(Cl)c4)cc3C(=O)N2C)O1	39.1% (inactive)

Same assay, conditions: HEK293T viability, CellTiter-Glo ATP luminescence, 72 h; at 23.5 µM (top of the series)

SMILES	activity change, negative = cytotoxicity
COC(=O)C[C@@H]1CC[C@@H]2[C@H](COc3ccc(NC(=O)c4cccc(F)c4)cc3C(=O)N2C)O1	-28.5% (inactive)
COC(=O)C[C@@H]1CC[C@H]2[C@H](COc3ccc(NC(=O)Nc4ccc(C#N)cc4)cc3C(=O)N2C)O1	17.6% (inactive)

Same assay, conditions: HEK293T viability, CellTiter-Glo ATP luminescence, 72 h; at 26 µM (top of the series)

SMILES	activity change, negative = cytotoxicity
O=C(C[C@@H]1C[C@H]2c3cc(NC(=O)CC4CC4)ccc3O[C@H]2[C@H](CO)O1)NCc1ccccc1F	13.3% (inactive)
Cc1cccc(NC(=O)CN2CCN(C(=O)CNC(=O)c3ccc(-c4ccccc4)cc3)CC2)c1C	-18.2% (inactive)
Cc1c(Cl)cccc1NC(=O)CCC(=O)N/N=C/c1ccc[nH]1	12% (inactive)
COc1ccc(C2=Nn3c([n+](C)c4ccccc43)SC2)cc1	-33.2% (inactive)
COC(=O)Cc1[nH]n(-c2nc3ccccc3s2)c(=O)c1C(C)=Nc1ccc(C)cc1	-30% (inactive)
O=C(/C=C/c1cc(Br)ccc1O)c1ccco1	-23.9% (inactive)
COC(=O)c1c(C)[nH]c(/C=N/Nc2ccccc2)c1C	-4.63% (inactive)
COc1ccc2oc(-c3ccccc3)cc(=O)c2c1	-22.5% (inactive)
Cc1ccc(/C=C/C(=O)N2CCN(S(=O)(=O)c3c(C)c(C)cc(C)c3C)CC2)o1	16.1% (inactive)
O=C(O)c1ccccc1C(=O)Nc1ccc(Oc2ccc3ccccc3c2)cc1	-15.8% (inactive)
COc1ccc(NC(=O)c2cc3ccccc3oc2=O)cc1	-17.4% (inactive)
Brc1ccc(CSc2nnc(-c3ccco3)o2)cc1	-18% (inactive)
CCOc1ccc(-c2cc(CCCC(=O)N3CCN(c4ccc(OC)cc4)CC3)no2)cc1	-8.72% (inactive)
C[C@@H]1CN([C@@H](C)CO)C(=O)Cc2cc(NC(=O)C3CCCCC3)ccc2O[C@H]1CN(C)Cc1ccc(C(=O)Nc2ccccc2N)cc1	7.97% (inactive)
O=C(CN1C(=O)c2ccccc2S1(=O)=O)c1ccc(F)cc1	6.26% (inactive)
COc1ccc(-c2nc3c(s2)CCc2onc(-c4ccc(OC)cc4)c2-3)cc1	-17.8% (inactive)
COc1ccc(/C=C2\SC(=O)N(CCCC(=O)Nc3ccc(C(=O)O)cc3)C2=O)cc1	-14.1% (inactive)
CCOc1ccc(OCc2ccc(C(=O)NN=Cc3ccc[nH]3)cc2)cc1	-39.9% (inactive)
C[C@@H]1CN([C@@H](C)CO)S(=O)(=O)c2ccc(C#CCN(C)C)cc2O[C@@H]1CN(C)Cc1ccncc1	52.2% (inactive)
C=CCn1c(O)c(N=Nc2ccccc2)c2ccccc21	11.3% (inactive)
Cc1c(Cc2ccc3c(c2)OCO3)sc(NC(=O)C(C)(C)C)c1C#N	-13.7% (inactive)
C[C@@H]1CN([C@@H](C)CO)C(=O)c2cccc(NC(=O)CCCCCC(=O)Nc3ccccc3N)c2O[C@@H]1CN(C)Cc1ccc(Oc2ccccc2)cc1	-1.35% (inactive)
Cc1ccc(C(C(=O)NCc2ccco2)N(C(=O)CNC(=O)c2cccs2)c2c(C)cc(C)cc2C)cc1 (centres undefined)	-19.4% (inactive)
CCOC(=O)Cc1csc(NC(=S)NC(=O)c2ccc(C)cc2)n1	-21.9% (inactive)
COc1ccc(Nc2ncnc3ccc(Br)cc23)c(OC)c1	-18.8% (inactive)
Cc1ccc(N2C(=O)c3cccc4c(N)ccc(c34)C2=O)c2cccnc12	-19.1% (inactive)

SMILES	activity change, negative = cytotoxicity
CCOc1cc2[nH]c(=S)n(Cc3ccc(C(=O)NCCN(CC)CC)cc3)c(=O)c2cc1OCC	-4.81% (inactive)
CC(C)(C)c1ccc(Oc2ccc(NC(=O)C3CC=CCC3C(=O)O)cc2)cc1 (centres undefined)	-16.1% (inactive)
O=C(CNC(=O)Cc1ccccc1)N=Nc1c(O)n(Cc2ccc3c(c2)OCO3)c2ccccc12	-23.2% (inactive)
Cc1c(N=Cc2cc(Br)cc(Br)c2O)cccc1C(=O)O	6.56% (inactive)
CC(C)c1ccc(OCc2cccc(C(=O)N/N=C/c3cccnc3)c2)cc1	-18.1% (inactive)
COc1cccc(Sc2ccccc2/C=N/NC(N)=O)c1	-10.9% (inactive)
Cc1ccc2c(=O)n3c(nc2c1)C(Cc1ccc(O)cc1)NC(=O)c1cc2ccccc2cc1-3 (centres undefined)	-16.8% (inactive)
COc1cc(-c2cnc3c(NC=O)cc(-c4cccc(NC(C)=O)c4)cn23)cc(OC)c1OC	27.3% (inactive)
O=C(/C=C/c1ccc(Cl)cc1Cl)N(Cc1ccc(Cl)cc1)C1CCS(=O)(=O)C1 (centres undefined)	-14.5% (inactive)
O=C(NC1CCCC1)C(c1ccccc1)n1c(CSCCOc2ccccc2)nc2ccccc21 (centres undefined)	-14.3% (inactive)
Cc1nn(-c2ccc(F)cc2)c2nc(N)c(C#N)c(-c3ccc(O)c(O)c3)c12	-12.7% (inactive)
O=C(Nc1nc(-c2ccc(F)c(F)c2)cs1)c1ccc(OCC2CCCO2)cc1 (centres undefined)	-9.94% (inactive)
C[C@@H]1CN([C@@H](C)CO)C(=O)c2cccc(NC(=O)Nc3ccccc3)c2O[C@@H]1CN(C)Cc1ccc(-c2ccccc2)cc1	-22.7% (inactive)
COc1cccc(S(=O)(=O)N(C)C[C@H]2OCc3cnnn3CCCC(=O)N([C@@H](C)CO)C[C@H]2C)c1	5% (inactive)
CN(C)c1ccc(-c2ccnc3c2CC(C)(C(=O)NCc2ccco2)O3)cc1 (centres undefined)	-32.8% (inactive)
COC(=O)C[C@@H]1CC[C@@H]2[C@H](COc3ccc(NC(=O)c4ccccc4)cc3C(=O)N2C)O1	41.2% (inactive)
CN1C(=O)c2cc(NC(=O)c3ccc(Cl)cc3)ccc2OC[C@@H]2O[C@@H](CC(=O)NCc3cccc(F)c3)CC[C@H]21	-5.64% (inactive)
CCOc1ccc(-c2cc(CCCC(=O)NCc3ccc(C)cc3)no2)cc1	8.45% (inactive)
CC(C)(C)[S@](=O)N1Cc2cc(C(=O)NCC(F)(F)F)nc(-c3cccc(-c4cccc(F)c4)c3)c2[C@@H]1CCO	-2.37% (inactive)
COc1ccc(NS(=O)(=O)c2cc(NC(=O)CNC(=O)c3cccc(OC)c3)ccc2C)cc1	-20.6% (inactive)
COc1ccc2cc(C(N)=O)/c(=N\NC(=O)c3ccccc3)oc2c1	-13.7% (inactive)
CC(C)NC(=O)N(C)C[C@@H]1Oc2cc(C#Cc3ccc(F)cc3)ccc2S(=O)(=O)N([C@H](C)CO)C[C@H]1C	-0.81% (inactive)
CCc1ccc(S(=O)(=O)c2ccc(-n3nc(C)cc3N)cc2)cc1	-6.44% (inactive)
COc1ccc(CNc2ncc(-c3ccc(F)cc3)n2C)c2ccccc12	-13.3% (inactive)
O=C(O)c1ccc(N/N=C/c2c(F)cccc2Cl)cc1	-29.9% (inactive)
